Holding throughout (test): ≥ marks a high value that may be exact or a test limit, other limits are often not marked, values filed in µg/mL are converted to µM
Assay [1] deals with Bacillus subtilis KCTC 1918.
Assay [2] deals with Candida albicans TIMM 1768.
In assay [3] the test system is Proteus vulgaris KCTC 2433.
Assay [4] concerns Saccharomyces cerevisiae KCTC 7296.
Assay [5] has as its system Salmonella typhimurium KCTC 1926.
Assay [6] deals with Staphylococcus aureus KCTC 1621.
Assay [7] relates to Trichosporon beigelii KCTC 7707.
Assay [8] concerns Acinetobacter baumannii NM35.
The subject of assay [9] is Acinetobacter baumannii NM8.
Assay [10] relates to Candida albicans ATCC 90028.
Assay [11] deals with Enterococcus faecalis ATCC 29212.
The subject of assay [12] is Escherichia coli ATCC 25726.
Assay [13] concerns Klebsiella pneumoniae ATCC 700603.
Assay [14] deals with Pseudomonas aeruginosa ATCC 27853.
For assay [15], the system named is Staphylococcus aureus 127/08.
Assay [16] has as its system Staphylococcus aureus 145/08.
The test system of assay [17] is Staphylococcus epidermidis RP62A/1.
The subject of assay [18] is Staphylococcus epidermidis RP62A.
Assay [19] concerns Staphylococcus epidermidis T37/8.
Assay [20] relates to Staphylococcus epidermidis T6/19.
Assay [21] deals with Stenotrophomonas maltophilia B32/1.
For assay [22], the system named is Stenotrophomonas maltophilia B5/5.
The test system of assay [23] is Stenotrophomonas maltophilia U8908.
The subject of assay [24] is Bacillus subtilis IFO 3513.
Assay [25] relates to Escherichia coli IFO 12734.
Assay [26] has as its system Escherichia coli JM109.
Assay [27] concerns Escherichia coli W160-37.
The subject of assay [28] is Micrococcus luteus ATCC 9341.
The subject of assay [29] is Saccharomyces cerevisiae PEP 4/3l.
In assay [30] the test system is Staphylococcus aureus ATCC 8530.
The test system of assay [31] is Staphylococcus aureus IFO 12732.
The subject of assay [32] is Aspergillus flavus KCTC 7375.
Assay [33] has as its system Bacillus megaterium KCTC 1096.
The test system of assay [34] is Candida albicans KCTC 7121.
The subject of assay [35] is Escherichia coli KCTC 1682.
The test system of assay [36] is Fusarium oxysporum KCTC 6084.
Assay [37] relates to Proteus vulgaris.
Assay [38] relates to Pseudomonas aeruginosa KCTC 1637.
For assay [39], the system named is Trichosporon beigelii KCTC 7251.
Assay [40] deals with Candida albicans ATCC 37092.
Assay [41] deals with Escherichia coli ATCC 25922.
Assay [42] concerns Escherichia coli HB101.
Assay [43] deals with Escherichia coli ML-35.
In assay [44] the test system is Salmonella enterica subsp. enterica serovar Typhimurium ATCC 14028.
The test system of assay [45] is Serratia marcescens ATCC 8100.
Assay [46] has as its system Staphylococcus aureus ATCC 25923.
The subject of assay [47] is Staphylococcus aureus ATCC 29213.

Values after ≈ are worked out from the molar mass of the structure shown.

By MIC is commonly meant the smallest concentration in the dilution series that meets the test's criterion for growth inhibition. Read a low MIC as greater potency. For the molecule `CC[C@H](C)[C@H](NC(=O)CNC(=O)[C@H](CC(C)C)NC(=O)[C@H](CCCN=C(N)N)NC(=O)[C@H](CCCCN)NC(=O)[C@H](Cc1ccccc1)NC(=O)[C@@H](NC(=O)[C@H](CCCCN)NC(=O)[C@H](Cc1c[nH]c2ccccc12)NC(=O)[C@H](C)N)C(C)C)C(=O)NCC(=O)N[C@@H](C)C(=O)N[C@H](C(=O)N[C@@H](CC(C)C)C(=O)N[C@@H](Cc1c[nH]c2ccccc12)C(=O)N[C@H](C(=O)N[C@@H](CC(C)C)C(=O)N[C@H](C(=O)N[C@@H](Cc1c[nH]c2ccccc12)C(=O)NCC(=O)O)[C@@H](C)O)C(C)C)C(C)C` [AWKVFKRLGIGAVLWVLTWG], the MIC was 6.25 µM (≈ 14.4 µg/mL) in [1]; not below 50 µM in [2]; 6.25 µM (≈ 14.4 µg/mL) in assay [3]; not below 50 µM in assay [4]; 0.78 µM (≈ 1.79 µg/mL) in assay [5]; 6.25 µM (≈ 14.4 µg/mL) in assay [6]. In assay [7], this molecule showed an MIC not below 50 µM.
As to `CC[C@H](C)[C@H](NC(=O)CN)C(=O)N[C@@H](Cc1ccccc1)C(=O)N1CCC[C@H]1C(=O)N[C@H](C(=O)N[C@@H](Cc1ccccc1)C(=O)N[C@@H](C)C(=O)N[C@@H](CCCCN)C(=O)N[C@@H](CC(C)C)C(=O)N[C@@H](CC(C)C)C(=O)NCC(=O)N[C@@H](CCCCN)C(=O)N[C@H](C(=O)N[C@H](C(=O)N[C@@H](CCCCN)C(=O)N[C@H](C(=O)N[C@@H](C)C(=O)N[C@@H](CO)C(=O)N[C@@H](CO)C(=O)N[C@@H](CC(C)C)C(=O)N[C@H](C(=O)N[C@@H](CO)C(=O)N[C@@H](CCCCN)C(=O)NCC(=O)N[C@@H](CCCN=C(N)N)C(=O)N[C@H](C(=O)N[C@@H](CCC(=O)O)C(=O)O)[C@@H](C)O)[C@@H](C)CC)C(C)C)[C@@H](C)CC)C(C)C)[C@@H](C)CC` [GIFPIFAKLLGKVIKVASSLISKGRTE], the MIC in assay [8] is 10 µM (≈ 28.7 µg/mL); in assay [9] it was 20 µM (≈ 57.5 µg/mL); in [10], not below 80 µM; in [11], 20 µM (≈ 57.5 µg/mL); in assay [12], not below 80 µM; in assay [13], more than 80 µM. The MIC in [14] is more than 80 µM; in assay [15], 5 µM (≈ 14.4 µg/mL); in [16], 10 µM (≈ 28.7 µg/mL); in assay [17], 2.5 µM (≈ 7.18 µg/mL); in assay [18] it was 5 µM (≈ 14.4 µg/mL); in assay [19] it was 10 µM (≈ 28.7 µg/mL). Moreover, the MIC in [20] was 5 µM (≈ 14.4 µg/mL); in assay [21] it was 10 µM (≈ 28.7 µg/mL); in [22], not below 40 µM; in assay [23], 20 µM (≈ 57.5 µg/mL).
Consider `CC[C@H](C)[C@H](N)C(=O)N[C@@H](CC(C)C)C(=O)N1CCC[C@H]1C(=O)N[C@@H](Cc1ccccc1)C(=O)N[C@@H](CCCCN)C(=O)N[C@@H](Cc1ccccc1)C(=O)N1CCC[C@H]1C(=O)N[C@@H](Cc1ccccc1)C(=O)N[C@@H](Cc1ccccc1)C(=O)N1CCC[C@H]1C(=O)N[C@@H](Cc1ccccc1)C(=O)N[C@@H](CCCN=C(N)N)C(=O)N[C@@H](CCCN=C(N)N)C(N)=O` [ILPFKFPFFPFRR], for which the MIC in assay [24] is 7.3 µM (≈ 12.5 µg/mL); in assay [25] it was not below 58.4 µM; in assay [26] it was 8 µM (≈ 13.7 µg/mL); in assay [27], 16 µM (≈ 27.4 µg/mL); in [28], 0.4 µM (≈ 0.684 µg/mL); in assay [29], 13.1 µM (≈ 22.3 µg/mL). Besides, the MIC was 1.65 µM (≈ 2.83 µg/mL) in assay [30] and 3.65 µM (≈ 6.25 µg/mL) in assay [31].
Turning to `CC[C@H](C)[C@H](NC(=O)[C@H](CCCCN)NC(=O)[C@H](CCCCN)NC(=O)[C@H](Cc1ccccc1)NC(=O)[C@H](CC(C)C)NC(=O)[C@H](CCCCN)NC(=O)[C@H](Cc1c[nH]c2ccccc12)NC(=O)[C@@H](N)CCCCN)C(=O)N1CCC[C@H]1C(=O)N[C@@H](CCCCN)C(=O)N[C@@H](Cc1ccccc1)C(=O)N[C@@H](CC(C)C)C(=O)N[C@@H](Cc1cnc[nH]1)C(=O)N[C@@H](CC(C)C)C(=O)N[C@@H](C)C(N)=O` [KWKLFKKIPKFLHLA], the MIC in assay [32] was not below 100 µM; in assay [33], 3.12 µM (≈ 5.93 µg/mL); in assay [1], 0.78 µM (≈ 1.48 µg/mL); in assay [34], not below 50 µM; in assay [35], 8.84 µM (≈ 16.8 µg/mL); in [36] it was not below 100 µM. Also, the MIC in [37] was 3.12 µM (≈ 5.93 µg/mL); in assay [38], 6.25 µM (≈ 11.9 µg/mL); in assay [6], 6.25 µM (≈ 11.9 µg/mL); in assay [39], not below 50 µM.
Turning to `CC[C@H](C)[C@H](NC(=O)[C@H](CCCN=C(N)N)NC(=O)[C@@H](N)CCCN=C(N)N)C(=O)N[C@@H](CCCN=C(N)N)C(=O)N1CCC[C@H]1C(=O)N[C@@H](CCCN=C(N)N)C(=O)N1CCC[C@H]1C(=O)N1CCC[C@H]1C(=O)N[C@@H](CCCN=C(N)N)C(=O)N[C@@H](CC(C)C)C(=O)N1CCC[C@H]1C(=O)N[C@@H](CCCN=C(N)N)C(=O)N1CCC[C@H]1C(=O)N[C@@H](CCCN=C(N)N)C(=O)N1CCC[C@H]1C(=O)O` [RRIRPRPPRLPRPRP], the MIC was 28.8 µM (≈ 55.3 µg/mL) in [40]; 45.3 µM (≈ 86.9 µg/mL) in assay [41]; 16 µM (≈ 30.7 µg/mL) in [42]; not below 128 µM in assay [43]; 128 µM (≈ 246 µg/mL) in [44]; not below 128 µM in assay [45]. Also, the results for the minimal inhibitory concentration (MIC) in assay [46] and in assay [47] were more than 128 µM and more than 500 µM, respectively.

Source of the values: DBAASP.
